Molecules are shown by their SMILES. Non-standard residues stand in square brackets, D forms with d. Residues, ends and D or L forms follow the SMILES beside them.

On the set-up of the data set: species or system male Swiss Webster mice. The note with it: mouse, in vivo. On the procedure: Six week-old male Swiss Webster mice weighing approximately 30 g were obtained from Taconic Farms (Germantown, N.Y., USA). The animals were housed three per cage in polycarbonate cages fitted with stainless steel wire lids and air filters, and supported on ventilated racks (Thoren Caging Systems, Hazelton, Pa., USA) in the Albany Medical College Animal Resources Facility. The mice were maintained at a constant temperature (24° C.) with lights on from 07:00 to 19:00 h, and allowed food and water ad libitum until used for uptake studies. Mouse [[…]]OB3 was prepared commercially as a C-terminal amide by Bachem (Torrance, Calif., USA). For oral delivery, mouse [[…]]-OB3 was dissolved in either phosphate buffered saline (PBS, pH 7.2) or 0.3% […] Therapeutics, San Diego, Calif. USA) reconstituted in water, at a concentration of 1 mg/200 ul and administered by gavage. Is has been previously shown that this concentration to be optimum for regulating energy expenditure, glycemic control, and insulin sensitivity in two genetically obese mouse models. (See Grasso P. et al., Regulatory Pept. 101:123-9 (2001); Grasso P. et al., Regulatory Pept. 85:93-100 (1999); Grasso P. et al., Endocrinology 138:1413-8 (1997); Grasso P. et al., Diabetes 48:2204-9 (1999); and Rozhayskaya-Arena M. et al., Endocrinology 141:2501-7 (2000)). At time zero (0), 200 μl mouse [[…]]-OB3 in PBS or 0.3% […]® was delivered by gavage to each mouse. Following peptide administration, the mice were transferred to separate cages for the designated time period. Five, 10, 20, 40, 60, or 120 min after peptide delivery, the mice (six per time point) were anesthetized with isoflurane (5%) and exsanguinated by cardiac puncture. Euthanasia was confirmed by cervical dislocation. The blood was collected in sterile nonheparinized plastic centrifuge tubes and allowed to stand at room temperature for 1 h. The clotted blood was rimmed from the walls of the tubes with sterile wooden applicator sticks. Individual serum samples were prepared by centrifugation for 30 min at 2600×g in an Eppendorf […], A-4-38 rotor (Eppendorf North America, Westbury, N.Y., USA), The serum samples in each experimental group (n=6) were pooled and stored frozen until assayed for mouse [[…]]-OB3 content by competitive ELISA. Mouse [[…]]-OB3 content of the pooled serum samples was measured by a competitive ELISA developed and validated in our laboratory as previously described. (See Novakovic Z. et al., Regulatory Pept. 154:107-11 (2009)). Serum concentrations of mouse [[…]]OB3 vs. time following oral delivery were plotted using the graphics program SigmaPlot 8.0 (SPSS Science, Chicago, Ill., USA). The area under the curve (AUC) was calculated with a function of this program. The lowest AUC value obtained was arbitrarily set at 1.0. Relative bioavailabilty was determined by comparing all other AUC values to 1.0. The period of time required for the serum concentration of mouse [[…]]-OB3 to be reduced to exactly one-half of the maximum concentration achieved following oral administration of mouse [[…]]-OB3 in the absence or presence of […]® was calculated using the following equation: […] Clearance of mouse [[…]]-OB3 from the plasma following oral delivery was calculated from the AUC using the following equation: CL=Dose/AUC Since the half-life of a drug is inversely related to its clearance from the plasma and directly proportional to its volume of distribution, the apparent volume of distribution of mouse [[…]]-OB3 following oral delivery was calculated from its half-life and clearance using the following equation: […] The relative oral bioavailability of mouse [[…]]-OB3 delivered in […]® was compared to the relative bioavailabilities of intranasal and three commonly used injection methods of delivery recently reported. (See Oliveira Jr. V X. et al., J. Pept. Sci. 14:617-25 (2008)). […]

`CC(C)C[C@@H](NC(=O)[C@H](CO)NC(=O)[C@H](CS)NC(=O)[C@@H](N)CO)C(=O)N1CCC[C@H]1C(=O)N[C@@H](CCC(N)=O)C(=O)N[C@H](C(N)=O)[C@@H](C)O` [mouse [D-Leu-4]-OB3] (H-SCS[dL]PQT-NH2; N-terminus assumed) yielded a Relative oral bioavailability of 52.2%. For the same compound, the bioavailability (Relative oral bioavailability) is 47.3%. Also, for the setting “po, 1 mg”, the “Maximum uptake (Cmax) in Intravail relative to PBS” value is given as 3.6 fold, the “Plasma CL in PBS compared with Intravail” value was “four times faster”, the Tmax was 50 min and the “t1/2 (serum half-life)” value is on record as 20.15 min. Also, the tmax (po, 1 mg) is listed as 50 min.

Values taken from patent US20110136728A1, “METHODS OF INCREASING BONE FORMATION USING LEPTIN-RELATED PEPTIDES” (priority 2009, published 2011).
